Species on record: Rattus norvegicus
Assay: DrugMatrix - Regimen: Daily Repeat
Assay type: toxicity, organism-based, Sprague-Dawley
Set-up: regimen Daily Repeat, gender Male, age 6-8 weeks
Conditions: in vivo, sc, […], route subcutaneous, dose 2.5 mg/Kg, dose level High; for ABSOLUTE BASOPHIL / ABSOLUTE EOSINOPHIL / ABSOLUTE LYMPHOCYTE / ABSOLUTE MONOCYTE / ABSOLUTE SEGMENTED NEUTROPHIL / BASOPHIL / EOSINOPHIL / ERYTHROCYTE COUNT / HEMATOCRIT / HEMOGLOBIN / LEUKOCYTE COUNT / LYMPHOCYTE / MEAN CORPUSCULAR HEMOGLOBIN / MEAN CORPUSCULAR HEMOGLOBIN CONCENTRATION / MEAN CORPUSCULAR VOLUME / MONOCYTE / NEUTROPHIL / NUCLEATED RED BLOOD CELLS / PLATELET COUNT: tissue Blood; for ALANINE AMINOTRANSFERASE / ALBUMIN / ALKALINE PHOSPHATASE / ASPARTATE AMINOTRANSFERASE / BLOOD UREA NITROGEN / CARBON DIOXIDE / CHLORIDE / CHOLESTEROL / CREATINE PHOSPHOKINASE / CREATININE / GLUCOSE / LACTATE DEHYDROGENASE / LIPASE / PHOSPHORUS / POTASSIUM / SODIUM / TOTAL BILIRUBIN / TOTAL PROTEIN / URIC ACID: tissue Plasma

CC1(C)O[C@@H]2C[C@H]3[C@@H]4C[C@H](F)C5=CC(=O)C=C[C@]5(C)[C@@]4(F)[C@@H](O)C[C@]3(C)[C@]2(C(=O)CO)O1 [FLUOCINOLONE ACETONIDE]
ABSOLUTE BASOPHIL (72 h, time 3 day): 0 CELLS/uL
ABSOLUTE EOSINOPHIL (72 h, time 3 day): 0 CELLS/uL
ABSOLUTE LYMPHOCYTE (72 h, time 3 day): 365.67 CELLS/uL
ABSOLUTE MONOCYTE (72 h, time 3 day): 12.67 CELLS/uL
ABSOLUTE SEGMENTED NEUTROPHIL (72 h, time 3 day): 5188.33 CELLS/uL
BASOPHIL (72 h, time 3 day): 0%
EOSINOPHIL (72 h, time 3 day): 0%
ERYTHROCYTE COUNT (72 h, time 3 day): 4.97 x10E6/uL
HEMATOCRIT (72 h, time 3 day): 32.1%
HEMOGLOBIN (72 h, time 3 day): 11.87 G/DL
LEUKOCYTE COUNT (72 h, time 3 day): 5.57 x10E3/uL
LYMPHOCYTE (72 h, time 3 day): 6.67%
MEAN CORPUSCULAR HEMOGLOBIN (72 h, time 3 day): 24.1 pg
MEAN CORPUSCULAR HEMOGLOBIN CONCENTRATION (72 h, time 3 day): 37.03 G/DL
MEAN CORPUSCULAR VOLUME (72 h, time 3 day): 64.97 fL
MONOCYTE (72 h, time 3 day): 0.33%
NEUTROPHIL (72 h, time 3 day): 93%
NUCLEATED RED BLOOD CELLS (72 h, time 3 day): 0.67 /100WBC
PLATELET COUNT (72 h, time 3 day): 1062 x10E3/uL
ALANINE AMINOTRANSFERASE (72 h, time 3 day): 159.67 u/L
ALBUMIN (72 h, time 3 day): 4.33 G/DL
ALKALINE PHOSPHATASE (72 h, time 3 day): 320.67 u/L
ASPARTATE AMINOTRANSFERASE (72 h, time 3 day): 309.33 u/L
BLOOD UREA NITROGEN (72 h, time 3 day): 24.33 mg/dL
CARBON DIOXIDE (72 h, time 3 day): 26 mmol/L
CHLORIDE (72 h, time 3 day): 97 MEQ/L
CHOLESTEROL (72 h, time 3 day): 133 mg/dL
CREATINE PHOSPHOKINASE (72 h, time 3 day): 322 u/L
CREATININE (72 h, time 3 day): 0.18 mg/dL
GLUCOSE (72 h, time 3 day): 463 mg/dL
LACTATE DEHYDROGENASE (72 h, time 3 day): 822 u/L
LIPASE (72 h, time 3 day): 9.67 u/L
PHOSPHORUS (72 h, time 3 day): 10.6 mg/dL
POTASSIUM (72 h, time 3 day): 4.57 MEQ/L
SODIUM (72 h, time 3 day): 142.47 MEQ/L
TOTAL BILIRUBIN (72 h, time 3 day): 0.27 mg/dL
TOTAL PROTEIN (72 h, time 3 day): 5.4 G/DL
URIC ACID (72 h, time 3 day): 1.03 mg/dL
ABSOLUTE BASOPHIL (120 h, time 5 day): 0 CELLS/uL
ABSOLUTE EOSINOPHIL (120 h, time 5 day): 0 CELLS/uL
ABSOLUTE LYMPHOCYTE (120 h, time 5 day): 450 CELLS/uL
ABSOLUTE MONOCYTE (120 h, time 5 day): 219.33 CELLS/uL
ABSOLUTE SEGMENTED NEUTROPHIL (120 h, time 5 day): 11864 CELLS/uL
BASOPHIL (120 h, time 5 day): 0%
EOSINOPHIL (120 h, time 5 day): 0%
ERYTHROCYTE COUNT (120 h, time 5 day): 5.21 x10E6/uL
HEMATOCRIT (120 h, time 5 day): 33.17%
HEMOGLOBIN (120 h, time 5 day): 12.2 G/DL
LEUKOCYTE COUNT (120 h, time 5 day): 12.53 x10E3/uL
LYMPHOCYTE (120 h, time 5 day): 3.67%
MEAN CORPUSCULAR HEMOGLOBIN (120 h, time 5 day): 23.37 pg
MEAN CORPUSCULAR HEMOGLOBIN CONCENTRATION (120 h, time 5 day): 36.87 G/DL
MEAN CORPUSCULAR VOLUME (120 h, time 5 day): 63.37 fL
MONOCYTE (120 h, time 5 day): 1.67%
NEUTROPHIL (120 h, time 5 day): 94.67%
NUCLEATED RED BLOOD CELLS (120 h, time 5 day): 0 /100WBC
PLATELET COUNT (120 h, time 5 day): 587.67 x10E3/uL
ALANINE AMINOTRANSFERASE (120 h, time 5 day): 194 u/L
ALBUMIN (120 h, time 5 day): 3.57 G/DL
ALKALINE PHOSPHATASE (120 h, time 5 day): 289.67 u/L
ASPARTATE AMINOTRANSFERASE (120 h, time 5 day): 380.33 u/L
BLOOD UREA NITROGEN (120 h, time 5 day): 24.33 mg/dL
CARBON DIOXIDE (120 h, time 5 day): 17.67 mmol/L
CHLORIDE (120 h, time 5 day): 95 MEQ/L
CHOLESTEROL (120 h, time 5 day): 90 mg/dL
CREATINE PHOSPHOKINASE (120 h, time 5 day): 1694.33 u/L
CREATININE (120 h, time 5 day): 0.29 mg/dL
GLUCOSE (120 h, time 5 day): 635 mg/dL
LACTATE DEHYDROGENASE (120 h, time 5 day): 429 u/L
LIPASE (120 h, time 5 day): 10 u/L
PHOSPHORUS (120 h, time 5 day): 14.6 mg/dL
POTASSIUM (120 h, time 5 day): 6.12 MEQ/L
SODIUM (120 h, time 5 day): 139.3 MEQ/L
TOTAL BILIRUBIN (120 h, time 5 day): 0.2 mg/dL
TOTAL PROTEIN (120 h, time 5 day): 4.67 G/DL
URIC ACID (120 h, time 5 day): 3.2 mg/dL
